Assay results taken from patent US20210228741A1, “METHODS AND COMPOSITIONS TO STIMULATE RETINAL REGENERATION” (UNIVERSITY OF WASHINGTON, priority 2018, published 2021).

Key:
WT retinas = conditions: mouse, in vivo
Description: A) Experimental paradigm for analyzing STAT3 phosphorylation by western blot in MG. P11 retinas were dissociated and grown in a growth media containing mEGF for 7 DIV. MG were passaged to eliminate residual neurons and cultured in a media containing doxycycline to induce Ascl1 expression for 6 DIV. […] B) Representative images from confluent cultures of non-treated, DOX-treated, and DOX+STATi-treated MG just before harvesting. C) Representative western blot for pSTAT3 (Y705), STAT3, and Beta-actin on non-treated, Dox-treated, and Dox+STATi-treated MG cultures. […] Scale bars for B and E are 25 and 40 μm, respectively.
Immunohistochemistry (IHC): Upon euthanasia of adult mice, eyes were removed and comeas dissected away. Globes were then fixed for 1 hour in 4% PFA in PBS followed by an overnight incubation in 30% sucrose in PBS at 4° C. Fixed eyes were then frozen in O.T.C. (Sakura Finetek) at −80° C. until sectioned. Frozen eyes were sectioned on a cryostat (Leica) at 16-18 μm thick and were stored at −20° C. until staining. All washes were 3 times 20 minutes in PBS on a rotating plate at room temperature. Slides were washed then blocked in 10% normal horse serum, 0.5% Triton X-100 in PBS for a minimum of 1 hour prior to primary. All primary antibodies were diluted in blocking solution and applied to tissue for a minimum of 3 hours. […]

[1] = tested on: Ascl1 binding at STAT3 bound regions; experiment: Ascl1 ChIP-seq on control and STATi-treated cultured MG; format: cell-based, mouse; conditions: cultured P12 MG, doxycycline-induced Ascl1
Procedure: To directly assess the effect that STAT pathway activation has on Ascl1 binding at Id genes and more broadly across the genome during MG reprogramming, we performed an Ascl1 ChIP-seq on control and STATi-treated MG. Frozen stocks of MG from P12 germline-rtTA:tetO429 Ascl1 mice were thawed and cultured to confluency for 2 days in high FBS growth media. Cells were then given a low FBS media with STATi or vehicle for the remaining 4 DIV. At 3 DIV (1 day after STATi), doxycyline was administered to induce Ascl1 overexpression in the MG. Cells were then collected and fixed for ChIP-seq after 6 DIV. FASTQ files were aligned to the mm10 genome using Bowtie2 and peaks were called using MACS2. […] Both datasets contained the canonical Ascl1 E-box as the top scoring motif, as determined by HOMER, with strong central enrichment of peaks from both datasets around the Ascl1 motif. […]
Ascl1 Chromatin Immunoprecipitation-Sequencing (ChIP-Seq): P0 retinas or cultured, post-natal day 12, Müller glia (+/−Ascl1 overexpression, rtTA germline:tetO-Ascl1-ires-GFP mice ±doxycycline) were digested with papain/DNase to single cells and fixed with 0.75% formaldehyde for 10 minutes at room temperature. […] Libraries were prepared with standard Illumina adaptors and sequenced to an approximate depth of 36 million reads each. Sequence reads (36 bp) were mapped to the mouse mm9 genome using bwa (v 0.7.12-r1039). […]

[2] = tested on: Ascl1-reporter Müller glia; experiment: miRNA mimic/antagomiR transfection of P11 MG cultures from Ascl1-CreER:tdTomato reporter mice; format: cell-based, mouse
Description: To test whether miRNAs regulate the neurogenic competence of MG, we used primary dissociated cell cultures, since this method has proven effective for identifying reprogramming factors that are effective both in vitro and in vivo (Jorstad et al., 2017; Pollak et al., 2013; Ueki et al., 2015). We hypothesized that miRNAs highly expressed in RPCs may be important in establishing and maintaining the RPC gene expression pattern. One prediction of this hypothesis is that over-expression of the RPC-miRNAs in MG would cause the MG to adopt a progenitor-like gene expression profile. […]
MG cultures from P11 Ascl1-CreER:tdTomatoflSTOP/flSTOP mice were transfected with either a cocktail of all four RPC-miR mimics, or each miRNA mimic individually (FIG. 10B). We added 4-Hydroxy-tamoxifen to the cultures to activate the cre-recombinase and monitored the cells for tdTomato expression. […]
Müller glia were dissociated (see above) from postnatal day (P) 11/12 mice and adult (one month, 2, and 4 months) and grown in Neurobasal medium supplemented with N-2, tetracycline-free 10% fetal bovine serum (FBS, Clontech), and epidermal growth factor (EGF, R&D Systems, 100 ng/mL) as described previously (Ueki et al., 2012). […] EdU was added either with the onset of culturing to track cell proliferation of MG lineage or after transfection to quantify cell proliferation due to the treatment. […]

| Compound | toxicity (TUNEL staining) (WT retinas) | Ascl1 binding (ChIP-seq peaks) at STAT3 bound regions near Id1 and Id3 [1] | Ascl1:tdTomato+ cells (Ascl1-reporter expression) ([2]; P11 MG cultures, days post-transfection vs control) | conversion of MG into a neuronal/RPC phenotype ([2]; young (P11) MG in vitro, summary statement) |
| --- | --- | --- | --- | --- |
| CN(CC(=O)N(Cc1ccc(C2CCCCC2)cc1)c1ccc(C(=O)O)cc1)S(=O)(=O)c1c(F)c(F)c(F)c(F)c1F [SH-4-54] | not found to be toxic | Decreased Ascl1 binding | – | – |
| miR-25: miR-25 mimic, CAUUGCACUUGUCUCGGUCUGA (SEQ ID NO: 22); double-stranded, preprocessed miRNA (double-stranded mimic, other strand not given here) | – | – | significant increase | approximately 40% |
